From patent publication US9057727B2, “Screening methods using G-protein coupled receptors and related compositions” (The General Hospital Corporation, priority 2007, dated 2015)
Where two headings read alike, the source gives them in different places. Peptide text beside a SMILES is read from it.

Tests used:
[1] = target: T1, human PTHR, G protein-coupled conformation (RG) (Homo sapiens, UniProt Q03431); assay: Competition binding to RG conformation of hPTHR (COS-7 membranes, GαsND, 125I-[Aib1,3,M]PTH(1-15) tracer)
T1 construct: expressed in transfected cells; host or cells: COS-7, transient (Fugene-6); membranes
T1 sequence (Q03431 27-593): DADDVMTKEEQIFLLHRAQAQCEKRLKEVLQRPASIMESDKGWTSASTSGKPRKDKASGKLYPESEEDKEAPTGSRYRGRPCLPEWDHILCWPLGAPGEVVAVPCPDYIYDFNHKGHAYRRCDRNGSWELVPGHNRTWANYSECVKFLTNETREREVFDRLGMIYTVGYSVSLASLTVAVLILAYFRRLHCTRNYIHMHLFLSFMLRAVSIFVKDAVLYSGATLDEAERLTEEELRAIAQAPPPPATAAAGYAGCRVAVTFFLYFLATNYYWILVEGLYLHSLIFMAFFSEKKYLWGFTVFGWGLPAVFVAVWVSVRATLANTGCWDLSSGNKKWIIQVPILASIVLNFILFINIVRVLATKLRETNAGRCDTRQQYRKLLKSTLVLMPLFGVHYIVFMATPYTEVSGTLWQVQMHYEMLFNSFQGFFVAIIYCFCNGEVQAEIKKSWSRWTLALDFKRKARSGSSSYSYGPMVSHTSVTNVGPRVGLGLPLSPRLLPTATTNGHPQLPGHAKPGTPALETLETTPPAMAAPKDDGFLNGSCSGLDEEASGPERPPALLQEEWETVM

MC3T3-E1 cells = assay: cAMP in MC3T3-E1 cells, dose-response; format: cell-based
Experimental: In the 1-30 scaffold, Gly, Ser, Leu, Asn, Gln, Trp, Glu, and Lys were substituted at position 29; Gly, Ser, Leu, Asn, Asp, Trp, and Lys were substituted at position 30; and Ser, Leu, Asn, Val, Trp, Glu, and Lys were substituted at position 31. […] These peptides were tested for cAMP activity in MC3T3-E1 cells.

human PTH1 receptor = target: T2, human PTH1 receptor (Homo sapiens, UniProt Q03431); assay: cAMP signaling dose-response in HKRK-B7 cells; format: cell-based; conditions: 15 min, 37° C., IBMX
T2 construct: expressed in transfected cells
T2 sequence (Q03431 27-593): T1 sequence (Q03431 27-593)
Experimental: In the cAMP experiments of FIG. 14, HKRK-B7 were seeded in 96 well plates at 1×10^5 cells/well and incubated overnight. On the following day, the cells were washed once with […] of binding buffer (50 mM Tris-HCl, pH 7.7, 100 mM NaCl, 5 mM KCl, 2 mM CaCl2, 5% heat-inactivated horse serum, 0.5% heat-inactivated fetal bovine serum), followed by addition of 100 μl cAMP assay buffer (DMEM, 2 mM IBMX, 1 mg/ml bovine serum albumin, 35 mM Hepes-NaOH, pH 7.4) on ice. […] After removing the medium, the plates were placed on powdered dry ice to freeze the cells and then removed from dry ice. The cells were thawed with 50 μl of 50 mM HCl and frozen again on dry ice. The level of intracellular cAMP was measured with a commercially available cAMP EIA kit (Biotrack cAMP EIA system, GE Healthcare).
HKRK-B, which are LLC-PK1 cells over-expressing human PTH1 receptor at levels of 9.5×10^5 per cell were used in the cAMP signaling assay. The cells were cultured at 37° C. in a humidified atmosphere containing 5% CO2 in Dulbecco's modified Eagle's medium (DMEM), supplemented with 10% fetal bovine serum (Hyclone), 100 units/ml penicillin G, and 100 μg/ml streptomycin sulfate (Invitrogen Corp). […] All peptides were dissolved at 1 mM in 10 mM acetic acid, and stored at −80° C. The cAMP stimulation assay was performed as described above for HKRK-B7 cells. […] Cells were treated for 15 minutes at 37° C. with varying concentrations of ligands in the presence of IBMX.

[2] = tested on: LLCPK1-B64 cells or SaOS-2 cells; assay: cAMP screen of substituted PTHrP(1-28) analogs (% parent); format: cell-based; conditions: parent PTHrP(1-28)NH
How it was run: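 LLCPK1-B64 or SaOS-2 cells exposed to peptide analogs at 3×10^−9M with IBMX for 30 minutes at room temperature, then cAMP measured. Each analog's response expressed as percentage of that for parent PTHrP(1-28).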

[3] = Plasma cAMP in C57BL/6 mice after intravenous injection; format: in vivo; conditions: i.v. (Example 4)
Experimental: Blood was withdrawn 10 minutes after injection, and the plasma level of cAMP was measured by RIA.
Blood was withdrawn 10 minutes after injection and plasma level of cAMP was measured by RIA.

SaOS cells = assay: cAMP production in SaOS cells, dose-response; format: cell-based
[4] = target: T3, human PTHR, G protein-uncoupled conformation (R^0) (Homo sapiens, UniProt Q03431); assay: Competition binding to R0 conformation of hPTHR (COS-7 membranes, GTPγS, 125I-PTH(1-34) tracer); conditions: for R0/RG selectivity: hPTHR
T3 construct: expressed in transfected cells; host or cells: COS-7, transient (Fugene-6)
T3 sequence (Q03431 27-593): T1 sequence (Q03431 27-593)
How it was run: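 Membranes from hPTHR-transfected COS-7 cells (20-100 μg/mL protein) incubated 90 min with radioligand (~150,000 cpm/ml) and unlabeled ligands, then filtered. Specific binding expressed as % of binding without competitor.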

[5] = Bone structural parameters after two-week daily treatment in mice (Piximus, microCT); format: in vivo
Experimental: FIG. 31 is a set of images showing the effects of two-week daily treatment of R^0 and RG ligands on trabecular and cortical bone structure in mice. Mice (C57BL/6, males, 3 months) were treated (i.v.) with either vehicle, rPTH(1-34) (SEQ ID NO:130), M-PTH(1-34) (SEQ ID NO:12), or E^18,A^22,L^25,K^26 (EALK)PTHrP(1-30) (SEQ ID NO:90) (5 nmol/kg; n=7 group), daily for 14 days, and femurs were analyzed by μCT.
As described above, mice were treated intravenously) with either vehicle, rPTH(1-34), M-PTH(1-34), or EALK-PTHrP(1-30) daily for 14 days.

[6] = Blood ionized calcium in C57BL/6 mice after intravenous injection; format: in vivo; conditions: 5 nmol/kg i.v.
Experimental: FIGS. 29A and 29B are graphs showing the effect of R^0 and RG selective PTH analogs on plasma cAMP and calcium in mice. FIGS. 29A and 29B show plasma cAMP concentrations in mice (C57BL/6, males, 3 months) that were administered either vehicle, rPTH(1-34) (SEQ ID NO:130), M-PTH(1-34) (M=A^1,Aib^3,Q^10,Har^11,A^12,W^14,R^19) (SEQ ID NO:12), or E^18,A^22,L^25,K^26-(EALK)-PTHrP(1-30) (SEQ ID NO:90) (5 nmol/kg; n=7 for cAMP, n=4 for calcium) intravenously. […] In the calcium experiment, blood was withdrawn before, and 1, 2, 4 and 6 hours after injection, and ionized calcium was measured using a Ca^++/pH analyzer.
We also characterized the effects of the EALK-PTHrP(1-30) peptide on cAMP production. Three month old male C57BL/6 mice were intravenously injected with either vehicle, rPTH(1-34), M-PTH(1-34) (M=A^1,Aib^3,Q^10,Har^11,A^12,W^14,R^19) or E^18,A^22,L^25,K^26-(EALK)-PTHrP(1-30) (5 nmol/kg). In the cAMP experiment (FIG. 29A), blood was withdrawn 10 minutes after injection and plasma level of cAMP was measured by RIA. In the calcium experiment (FIG. 29B), blood was withdrawn prior to injection and 1, 2, 4, and 6 hours after injection. Ionized calcium was measured using a Ca^++/pH analyzer.

[7] = Bone turnover markers (PINP, osteocalcin, CTX) in mice, daily treatment; format: in vivo; conditions: 5 nmol/kg i.v. daily, days 6 and 13
Experimental: FIGS. 30A-30F are graphs showing the effects of PTH analogs on plasma bone markers in mice. Mice (C57BL/6, males, 3 months) were intravenously injected daily with either vehicle, rPTH(1-34) (SEQ ID NO:130), M-PTH(1-34) (SEQ ID NO:12), or (EALK)-PTHrP(1-30) (SEQ ID NO:90) (5 nmol/kg; n=7 group) for 14 days. Markers of bone turnover (PINP, CTX and osteocalcin) were assessed by ELISA in blood at day 6 (FIGS. 30A, 30C, and 30E, respectively) and 13 (FIGS. 30B, 30D, and 30F, respectively).
A second set of experiments was performed in which mice received 5 nmol/kg intravenous daily treatment with rPTH(1-34), M-PTH(1-34), or EALK-PTHrP(1-30) for 14 days. Blood samples were taken at days 6 and 13, and markers of bone turnover (PINP, osteocalcin and CTX) were assessed by ELISA.

[8] = Table 2, read-out: RG binding affinity hPTHR IC50
[9] = Table 2, read-out: MC3T3-E1 cAMP EC50
[10] = Table 3, read-out: dose-response cAMP in MC3T3-E1 (EC50)
[11] = Table 2, read-out: SaOS camp EC50
[12] = Piximus, mice, 5 nmol/kg i.v. daily 14 days

With CC[C@H](C)[C@H](NC(=O)[C@H](CC(C)C)NC(=O)[C@H](CCCCN)NC(=O)[C@H](CC(C)C)NC(=O)[C@H](CC(C)C)NC(=O)[C@H](Cc1ccccc1)NC(=O)[C@H](C)NC(=O)[C@H](CCCNC(=N)N)NC(=O)[C@H](CCCNC(=N)N)NC(=O)[C@H](CCCNC(=N)N)NC(=O)[C@H](C)NC(=O)[C@H](CC(=O)O)NC(=O)[C@H](CCC(N)=O)NC(=O)[C@@H](NC(=O)[C@H](CO)NC(=O)[C@H](CCCCN)NC(=O)CNC(=O)[C@H](CCCCN)NC(=O)[C@H](CC(=O)O)NC(=O)[C@H](Cc1c[nH]cn1)NC(=O)[C@H](CC(C)C)NC(=O)[C@H](CC(C)C)NC(=O)[C@H](CCC(N)=O)NC(=O)[C@H](Cc1c[nH]cn1)NC(=O)[C@H](CCC(=O)O)NC(=O)[C@H](CO)NC(=O)[C@@H](NC(=O)[C@H](C)N)C(C)C)[C@@H](C)CC)C(N)=O [A18, 22, L25, K26-PTHrP(1-28)NH, A18,22,L25,K26-PTHrP(1-28)] (H-AVSEHQLLHDKGKSIQDARRRAFLLKLI-NH2; N-terminus assumed) the “cAMP potency and RG binding affinity compared with PTH(1-34), in words” value [1] was “cAMP potency and RG binding affinity that is greater than that of PTH(1-34)”, the IC50 [1, 8] was 0.04 nM and the EC50 (MC3T3-E1 cells; [9]) was 0.054 nM. For the same compound, the EC50 (MC3T3-E1 cells; [10]) was 0.054 nM, the “cAMP in HKRK-B7 cells Max” value (human PTH1 receptor) was 56.4 pm/well and the “screen cAMP (% parent)” value [2] was 305 % parent. For the same compound, the “plasma cAMP 10 minutes after injection, in words” value [3] was “Marked enhancements”, the “cAMP-inducing activity compared with parent, in words” value (SaOS cells) was “Marked enhancements of cAMP-inducing activity” and the EC50 (SaOS cells; [11]) was 0.002 nM. For the same compound, the EC50 (SaOS cells; Table 3, read-out: dose-response cAMP in SaOS (EC50)) was 0.002 nM, the R0/RG selectivity ([4]; Table 2) was 6971 and the IC50 ([4]; Table 2, read-out: R^0 binding affinity hPTHR IC50) was 310 nM.

With CC[C@H](C)[C@H](NC(=O)[C@H](CC(C)C)NC(=O)[C@H](CCCCN)NC(=O)[C@H](CC(C)C)NC(=O)[C@H](CC(C)C)NC(=O)[C@H](Cc1ccccc1)NC(=O)[C@H](C)NC(=O)[C@H](CCCNC(=N)N)NC(=O)[C@H](CCCNC(=N)N)NC(=O)[C@H](CCCNC(=N)N)NC(=O)[C@H](CCC(=O)O)NC(=O)[C@H](CC(=O)O)NC(=O)[C@H](CCC(N)=O)NC(=O)[C@@H](NC(=O)[C@H](CO)NC(=O)[C@H](CCCCN)NC(=O)CNC(=O)[C@H](CCCCN)NC(=O)[C@H](CC(=O)O)NC(=O)[C@H](Cc1c[nH]cn1)NC(=O)[C@H](CC(C)C)NC(=O)[C@H](CC(C)C)NC(=O)[C@H](CCC(N)=O)NC(=O)[C@H](Cc1c[nH]cn1)NC(=O)[C@H](CCC(=O)O)NC(=O)[C@H](CO)NC(=O)[C@@H](NC(=O)[C@H](C)N)C(C)C)[C@@H](C)CC)C(=O)N[C@@H](C)C(=O)N[C@@H](CCC(=O)O)C(N)=O [E18, A22, L25, K26-PTHrP(1-30)NH, E18,A22,L25,K26-PTHrP(1-30)] (H-AVSEHQLLHDKGKSIQDERRRAFLLKLIAE-NH2; N-terminus assumed) the “Lumbar Spine BMD” value [5, 12] was 0.0464 ± 0.0002 g/cm^2, the “Total Femur BMD” value [5, 12] was 0.620 ± 0.0003 g/cm^2 and the “effect on trabecular/cortical bone and BMD, in words” value ([5]; mice, 5 nmol/kg i.v. daily 14 days) was “increased cortical bone thickness with significance in the distal femur”. For the same compound, the Conn-Dens. ([5]; microCT distal femur) was 117 ± 9 1/mm^3, the “Cort Th.” value ([5]; microCT distal femur) was 238 ± 9 μm and the “Tb · N” value ([5]; microCT distal femur) was 4.13 ± 0.16 1/mm. The “Tb · Th” value ([5]; microCT distal femur) was 57.8 ± 2.1 μm, the TbSp ([5]; microCT distal femur) was 238 ± 10 μm and the TrabecularBV/TV ([5]; microCT distal femur) was 16.5 ± 1.3%. For the same compound, the BA ([5]; microCT mid femur) was 0.821 ± 0.027 mm^2, the BA/TA ([5]; microCT mid femur) was 40.3 ± 0.6% and the “Cort Th.” value ([5]; microCT mid femur) was 176 ± 4 μm. The MA ([5]; microCT mid femur) was 1.21 ± 0.03 mm^2, the TA ([5]; microCT mid femur) was 2.03 ± 0.06 mm^2 and the “ionized calcium response, in words” value [6] was “similar, if not lower, than that of PTH(1-34)”. For the same compound, the IC50 [1, 8] was 0.08 nM, the IC50 ([1]; Table 4, human PTH1 receptor, read-out: RG binding IC50) was 0.08 nM and the EC50 (MC3T3-E1 cells; [9]) was 0.059 nM. For the same compound, the EC50 (MC3T3-E1 cells; [10]) was 0.059 nM, the “effect on bone turnover markers, in words” value [7] was “increased bone formation markers, with relatively smaller effects on the resorption marker” and the EC50 (SaOS cells; [11]) was 0.063 nM. For the same compound, the R0/RG selectivity ([4]; Table 2) was 11169, the IC50 ([4]; Table 4, human PTH1 receptor, read-out: R0 binding IC50) was 945 nM and the R0/RG ratio ([4]; human PTH receptor on COS-7 cell membranes) was 11813.
